The results in this text go back to patent US20260001928A1 (CORTERIA PHARMACEUTICALS, priority 2022, published 2026).

In one data set the target is T1, human CRF2a receptor (Homo sapiens, UniProt Q13324).
T1 construct: expressed in transfected cells; host or cells: TeloHEAC cells
T1 sequence (Q13324 1-411): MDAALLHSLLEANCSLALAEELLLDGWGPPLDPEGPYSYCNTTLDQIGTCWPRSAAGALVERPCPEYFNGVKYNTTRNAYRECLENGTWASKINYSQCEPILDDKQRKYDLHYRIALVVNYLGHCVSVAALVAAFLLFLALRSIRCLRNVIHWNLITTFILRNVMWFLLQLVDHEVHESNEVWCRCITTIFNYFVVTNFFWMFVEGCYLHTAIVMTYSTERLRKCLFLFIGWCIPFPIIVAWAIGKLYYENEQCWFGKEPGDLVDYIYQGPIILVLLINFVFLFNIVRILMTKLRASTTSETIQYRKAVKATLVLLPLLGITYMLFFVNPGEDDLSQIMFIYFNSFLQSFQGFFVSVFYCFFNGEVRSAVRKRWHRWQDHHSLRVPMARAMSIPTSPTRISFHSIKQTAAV
In words: Activity at human CRF2a receptor, cAMP functional assay in TeloHEAC cells. The following applies: TeloHEAC cells stably expressing human CRF2a receptor, relative to urocortin 2 (100 nM = 100%). The class given is cell-based. Put shortly:
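TeloHEAC cells stably expressing human CRF2a (10000 cells/well, suspended in HBSS/20 mM HEPES with 2 mM IBMX) were exposed to compounds for 30 min at 37 °C. cAMP was read as the 665/620 nm fluorescence ratio after 1 h at room temperature. EC50 was derived relative to 100 nM urocortin 2, set as 100%.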

In the next data set the target is T2, CFR1R receptor (Homo sapiens, UniProt P34998).
T2 construct: host or cells: CHO-K1 (clone 2)
T2 sequence (P34998 24-415): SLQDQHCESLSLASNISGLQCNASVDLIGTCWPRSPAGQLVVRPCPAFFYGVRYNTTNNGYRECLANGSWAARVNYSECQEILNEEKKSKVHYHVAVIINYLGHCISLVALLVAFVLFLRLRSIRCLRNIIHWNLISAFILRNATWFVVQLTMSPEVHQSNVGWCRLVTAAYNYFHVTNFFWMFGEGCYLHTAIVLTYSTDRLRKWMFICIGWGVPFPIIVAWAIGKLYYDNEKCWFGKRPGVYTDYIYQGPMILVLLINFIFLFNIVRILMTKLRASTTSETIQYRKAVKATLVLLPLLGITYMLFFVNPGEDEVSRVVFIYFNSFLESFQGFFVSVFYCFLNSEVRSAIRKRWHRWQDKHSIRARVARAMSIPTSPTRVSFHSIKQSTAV
As to the kind of experiment: Activity at anti-target CFR1R receptor, cAMP assay in CRF1R-overexpression CHO-K1 cells. The following applies: 100% = Sauvagine at 100 nM. Format: cell-based. Put shortly:
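Grow clone 2 to near confluence at 37° C. under 5% CO2 in F12 (Hams) with 10% FBS and G418, harvest, and freeze in 10% DMSO. Thaw and plate at 4000 cells/well. Then proceed per the TeloHAEC method, normalising to Sauvagine 100 nM as maximum.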
In general terms: Changes in cAMP serve as a functional read-out for many G protein-coupled receptors.

A short description of data set [1]: In vitro subcutaneous tissue supernatant (SCts) stability and metabolite identification, rat. Format: in vitro ADME. Also noted: remaining at 2 h: dose or concentration left out as unconfirmed. The following applies: male, Sprague Dawley; rat subcutaneous tissue supernatant (SCts), 37° C, 2 h.
A short description of data set [2]: Chemical stability in buffer (pH 7.4 / pH 4.5), % purity loss. The class given is physicochemical. To be noted: 100 mM phosphate buffer pH 7.4; 40° C. vs 5° C.; 14 or 28 days. Put shortly:
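LC-UV gave % loss after 14 or 28 days of storage at 5 °C or 40 °C. Samples were diluted supernatants from compound incubated 1 h at room temperature at 10 mg/mL target, in 100 mM acetate pH 4.5 or 100 mM phosphate pH 7.4.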

Data set [3] is described as follows: Pharmacokinetics in male Sprague Dawley rats after subcutaneous administration. The following applies: plasma, rat, SC, 0.05 mg/kg. Format: in vivo.
Experiment in data set [4]: as above
Format: in vivo. The following applies: plasma, rat, IV, 0.025 mg/kg.

pEC50: −log10 of the molar value. *1 amine or outer side, *2 acyl side, *3 side chain or, on linkers, in order; H or OH if unused. Where a SMILES comes first, the peptide text is derived from it. Side-chain parts run from the residue outwards. [ ]: non-standard residue; d: D form. The star is where a group is joined. C20 diacid = O=C(O)CCCCCCCCCCCCCCCCCCC(=O)*; γGlu = O=C(O)[C@H](CCC(=O)[*:2])N[*:1]; Decanoyl = CCCCCCCCCC(=O)*; Aib = CC(C)(N)C(=O)O

As a reminder, the pEC50 is the EC50 on a negative log10 scale, so that one unit is a factor of ten. Broadly, the fraction remaining is the share of the starting amount still present when the sample was taken. The term AUC(0-t) denotes exposure summed from dosing to a finite time, without extrapolation to infinity. Broadly, the Cmax is the highest concentration seen after dosing. Usually Tmax stands for the time at which the peak concentration occurs. A word on the half-life: it is the time needed for the level to fall by half in the phase considered. For the compound `CCCCCCCCCC(=O)N[C@H](C(=O)N[C@@H](CC(C)C)C(=O)N[C@@H](CO)C(=O)N[C@@H](CC(C)C)C(=O)N[C@@H](CC(=O)O)C(=O)N[C@@H](C(=O)N1CCC[C@H]1C(=O)N[C@H](C(=O)N[C@@H](CCCCN)C(=O)N[C@@H](CC(C)C)C(=O)N[C@@H](CCCCNC(=O)CC[C@H](NC(=O)CCCCCCCCCCCCCCCCCCC(=O)O)C(=O)O)C(=O)N[C@@H](CCCCN)C(=O)N[C@H](C(=O)N[C@@H](CC(C)C)C(=O)N[C@@H](CC(C)C)C(=O)N[C@@H](CCC(=O)O)C(=O)N[C@@H](CCC(N)=O)C(=O)N[C@@H](CCC(=O)O)C(=O)N[C@@H](CCCCN)C(=O)N[C@@H](CCC(N)=O)C(=O)N[C@@H](CCCCN)C(=O)N[C@@H](CCCCN)C(=O)N[C@@H](CCC(N)=O)C(=O)N[C@@H](CCCNC(=N)N)C(=O)N[C@@H](CCC(=O)O)C(=O)N[C@@H](CCC(N)=O)C(=O)N[C@@H](C)C(=O)N[C@@H](CCC(=O)O)C(=O)N[C@H](C(=O)N[C@@H](CC(N)=O)C(=O)NC(C)(C)C(=O)N[C@@H](CCC(N)=O)C(=O)N[C@H](C(=O)N[C@@H](CC(C)C)C(=O)N[C@@H](C)C(=O)N[C@@H](CCC(N)=O)C(=O)N[C@H](C(N)=O)C(C)C)[C@@H](C)CC)[C@@H](C)O)[C@@H](C)CC)[C@@H](C)CC)C(C)C)C(C)C` [compound 223] (Decanoyl-VLSLD[dV]PIKLK([γGlu-C20 diacid])KILLEQEKQKKQREQAETN[Aib]QILAQV-NH2), the pEC50 at human CRF2a receptor is 10.10. Moreover, the “Emax (% I)” value at CFR1R receptor is 58 % I. The amount remaining at 2 h in data set [1] came to 79%. Besides, the “Buffer stability pH 7.4 % purity loss” value in data set [2] is recorded as −0.1/Not Tested %. In addition, in data set [3], the area under the curve AUC(0-t) was 698 ng·h/mL, the peak level (Cmax) was 67 ng/mL, the time of peak concentration (Tmax) worked out at 2 h and the half-life was 6.5 h. In data set [4], this compound had an AUC(0-t) of 1920 ng·h/mL and a half-life of 2.8 h.
